Reference: patent US20100297056A1, “COMPOSITION BASED ON PERHYDROSQUALENE AND COLLAGEN-POLYVINYLPYRROLIDONE FOR FILLING MINOR CUTANEOUS DEPRESSIONS” (ASPID, S.A. DE C.V., priority 2007, published 2010)

Experiments:
[1] = in vivo; cited from earlier work
[2] = mice; cited from earlier work
rat skin = experiment: murine model of intradermal administration of implant materials; assay type: in vivo, rats; conditions: sensorial analog scale, papule palpation
Description: Because of the above, a murine model essay of intradermal administration was designed, wherein several implant materials were evaluated such as natural and synthetic jojoba oil, peanut oil and perhydrosqualene, mixed with collagen-polyvinylpyrrolidone, various emulsifiers and a gelling agent (dibutyl-lauroyl glutamide). The administration of the implant materials generated papules, formed by the deposition of the material in the reticular dermis of the back of the rats. The papules were evaluated with regard to the tolerance of the tissue to the implant through a visual analog scale during a period of about 30 days, with their intervals; moreover, the eventual occurrence of skin changes such as irritation, ischemia formation and in some cases tissue necrosis related to the implanted material were reported, as well as the durability of the bioimplant that was quantified through a sensorial analog scale derived from the papule palpation.
In the same way, histological rat skin changes were evaluated through biopsies obtained from the implant infiltrated site, said biopsies were collected at different times in order to determine whether changes occurred in the internal skin structure, as well as to observe the implant site, the inflammatory infiltrate, the ratio between type I and type III collagens, as well as the possible formation of granulomes.

[3] = excreted through natural routes; cited from earlier work
[4] = rats, oral, three-month period; cited from earlier work
[5] = dogs, cited from earlier work
[6] = humans; cited from earlier work

Which “mean lethal dose DL50” value [1] does the source give for `CC(C)CCCC(C)CCCC(C)CCCCC(C)CCCC(C)CCCC(C)C` (stereo not drawn) [perhydrosqualene, 2,6,10,15,19,23-hexamethyltetracosane] here?
Its value is greater than 20 mL/kg.

And the “irritation after subcutaneous injections” value [2]?
Its value is “absence of cutaneous and ocular irritation”.

What about the “durability of the bioimplant in the tissue” value (rat skin) of the same compound?
The value was “constant even 15 days after its administration”.

What about the metabolism [3] of the same compound?
The metabolism was “non-metabolizable”.

What about the signs of toxicity [4] of the same compound?
Its signs of toxicity is “did not show signs of toxicity”.

What about the blood level ([5]; 1200 mg/kg during 14 days) of the same compound?
Its blood level is 30 ppm.

And the perhydrosqualene excretion ([5]; 1200 mg/kg during 14 days)?
Its perhydrosqualene excretion is 65-90 % per day.

And the “perhydrosqualene in blood on day 56” value ([5]; day 56 after the first dose)?
The value was “not detectable”.

And the “cutaneous and ocular irritation” value [6]?
Its value is “absence of cutaneous and ocular irritation”.
